Measurements: patent US20230124720A1, “APPLICATION OF ACRIDINEDIONE COMPOUND IN PREPARATION OF ANTI-DIABETIC DRUGS” (THE FOURTH MILITARY MEDICAL UNIVERSITY, priority 2020, published 2023)

How the values were obtained:
MIN6 cells = assay: Glucose-stimulated insulin secretion in MIN6 cells (GSIS); format: cell-based, mouse
Procedure: MIN6 cells were seeded in a 24-well plate at an appropriate concentration, and after continued culture until cell confluence exceeded 80%, administration was carried out in the following groups: normal control group (Con), ADD group (ADD-16 was administered at a concentration of 100 μmol/L, 30 μmol/L, 10 μmol/L, 3 μmol/L, 1 μmol/L, 0.3 μmol/L, respectively), TAK875 group (administered at a concentration of 10 μmol/L, 3 μmol/L, 1 μmol/L, respectively), with 6 replicates per group. Incubation was continued for 24 h after group dosing, media was aspirated and gently rinsed 2 times with a sugar-free KRB buffer. After rinsing, the sugar-free KRB buffer was added and incubated at 37° C. for 10 min. At the end of the incubation, the buffer was aspirated and each well was exhausted as much as possible. Each group was dosed with 16.7 mmol/L glucose in a KRB buffer and incubated at 37° C. for 1 hour. All media in the wells was aspirated after 1 h, centrifuged at 2000 rmp/min for 20 min, and the supernatant was collected and stored at −20° C. The insulin content was measured for each group following the instructions of the mouse insulinase ELISA assay kit.
Insulinase ELISA assay: the supernatant of each set of media was taken and processed according to the procedure of Table 1:
The final mixture was mixed well with shaking and the OD was read on a microplate reader at 450 nm. The insulin content of each group was calculated.

STZ-induced T2DM rats [1] = assay: Postprandial blood glucose in STZ-induced T2DM rats; format: in vivo, rat; settings: for reduction in blood glucose compared to the TD group: end of administration
Procedure: (§1) 150 male SD rats, housed in cages in a clean constant temperature (23±2° C.) and humidity (55±10%) animal house, were manually adjusted on a daily 12 h/12 h diurnal light cycle with free access to water. After 3 days of adaptive feeding, 150 rats were randomly divided into normal and model groups. The normal (Con, n=15) group of rats remained on raw chow and the model group (n=135) of rats were given high fat high sugar chow. All rats were fed twice daily and the amount of feed was adjusted as needed to ensure adequate feed. After 8 weeks of group feeding, the model group rats were given an intraperitoneal injection of 25 mg/kg STZ solution with a 12 h fast prior to injection. After injection, feeding was continued as in the original method, blood was taken from the tail vein at 72 h for blood glucose measurement, and rats with fasting blood glucose levels ≥11.1 mmol/L on different days were screened for successful artificial induction of T2DM and administered in groups for the next experiment. 135 rats with successful modeling were randomly divided into 9 groups: […] (2) 0.01 mg/kg ADD-16 administration group (ADD I, n=15): daily administration of 0.01 mg/kg ADD-16 solution by gavage; (3) 0.1 mg/kg ADD-16 administration group (ADD II, n=15): daily administration of a 0.1 mg/kg ADD-16 solution by gavage; (4) 1 mg/kg ADD-16 administration group (ADD III, n=15): daily administration of a 1 mg/kg ADD-16 solution by gavage; (5) 3 mg/kg ADD-16 administration group (ADD IV, n=15): daily administration of a 3 mg/kg ADD-16 solution by gavage; (6) 10 mg/kg ADD-16 administration group (ADD V, n=15): daily administration of a 10 mg/kg ADD-16 solution by gavage; (7) 50 mg/kg ADD-16 administration group (ADD VI, n=15): daily administration of a 50 mg/kg ADD-16 solution by gavage; […] (9) Sitagliptin control group (ST, n=15): daily administration of a 6 mg/kg sitagliptin solution by gavage. […] Relevant indicators of lipid metabolism were measured after the end of the study.

STZ-induced T2DM rats [2] = assay: Insulin tolerance test (ITT) in T2DM rats; format: in vivo, rat
Procedure: as §1, with “study. […] After the 120 min blood glucose value determination was completed, the diet was resumed. In the test, the condition of the rats was observed, and when abnormalities occurred, the experiment was stopped in time and a glucose solution was given by gavage to prevent death due to hypoglycemia.” for “study.”

STZ-induced T2DM rats [3] = assay: Serum lipid metabolism indicators in T2DM rats; format: in vivo, rat
Procedure: 150 male SD rats, housed in cages in a clean constant temperature (23±2° C.) and humidity (55±10%) animal house, were manually adjusted on a daily 12 h/12 h diurnal light cycle with free access to water. After 3 days of adaptive feeding, 150 rats were randomly divided into normal and model groups. The normal (Con, n=15) group of rats remained on raw chow and the model group (n=135) of rats were given high fat high sugar chow. All rats were fed twice daily and the amount of feed was adjusted as needed to ensure adequate feed. After 8 weeks of group feeding, the model group rats were given an intraperitoneal injection of 25 mg/kg STZ solution with a 12 h fast prior to injection. After injection, feeding was continued as in the original method, blood was taken from the tail vein at 72 h for blood glucose measurement, and rats with fasting blood glucose levels ≥11.1 mmol/L on different days were screened for successful artificial induction of T2DM and administered in groups for the next experiment. 135 rats with successful modeling were randomly divided into 9 groups: […] […] Relevant indicators of lipid metabolism were measured after the end of the study.

ZDF rat islet tissue = assay: Western Blot of insulin signaling related molecules in ZDF rat islet tissue; format: in vivo; settings: compared to TD group, P<0.001, most pronounced at 10 mg/kg
[4] = ADD IV group, 3 mg/kg daily by gavage
[5] = ADD V group, 10 mg/kg daily by gavage
[6] = ADD VI group, 50 mg/kg daily by gavage

With `CC1(C)CC(=O)C2=C(C1)NC1=C(C(=O)CC(C)(C)C1)C2c1ccc(OCc2ccc(C(=O)O)cc2)c(Br)c1` [ADD-16] the “insulin secretion compared to the Con group (in words)” value (MIN6 cells; 100 μmol/L, 24 h) was “decreased insulin secretion”, the “glucose-stimulated insulin secretion (in words)” value (MIN6 cells; 24 h, 16.7 mmol/L glucose, concentration dependent) was “promote glucose-stimulated insulin secretion” and the “insulinotropic effect compared with TAK875 (in words)” value (MIN6 cells; same concentrations) was “significantly better than TAK875”. For the same compound, the “reduction in blood glucose compared to the TD group” value (“reduction in blood glucose” for short) (STZ-induced T2DM rats [1]; [4]) was 55.0%, the “reduction in blood glucose” value (STZ-induced T2DM rats [1]; [5]) was 56.8% and the “reduction in blood glucose” value (STZ-induced T2DM rats [1]; [6]) was 56.2%. For the same compound, the “hypoglycemic effect (in words)” value (STZ-induced T2DM rats [1]; T2DM rats, 3, 10, 50 mg/kg) was “significant hypoglycemic effect”, the “decrease of ITT AUC compared to the TD group” value (“decrease of ITT AUC” for short) (STZ-induced T2DM rats [2]; [4]) was 46.5% and the “decrease of ITT AUC” value (STZ-induced T2DM rats [2]; [5]) was 43.7%. For the same compound, the “decrease of ITT AUC” value (STZ-induced T2DM rats [2]; [6]) was 45.2%, the “TG, LDL and HDL levels, 10 mg/kg against 3 mg/kg (in words)” value (STZ-induced T2DM rats [3]; ADD V (10 mg/kg) group) was “significantly lower than ADD IV (3 mg/kg) group rats” and the “serum FFA, TC, TG, LDL and HDL levels (in words)” value (STZ-induced T2DM rats [3]; four weeks after administration, ADD-16: ADD III-ADD VI groups (1-50 mg/kg), P<0.05) was “significantly decreased”. The “expression of insulin signaling-related molecules, Western Blot (in words)” value (ZDF rat islet tissue) was “upregulate the expression of GPR40, PGC-1α, P-P38, P-EP300, PPARγ, P-AKT, PI3K, IRS1 and GLUT4”.
